# Test system: 817829-284-R-J1-PDC complex spheroid viability
# Assay: Anticancer human tumor 817829-284-R-J1-PDC patient-derived colon adenocarcinoma cell line growth inhibition [POLQ]
# Details: for IC50: curve of first compound; for viability, T/C: stronger effect = lower value
# Protocol: Multicellular complex tumor spheroid response to Polymerase (POL) inhibitors (novobiocin, ART-558, RP6685) in combination with a variety of drugs and investigational agents in selected tumor cell lines
# The POL inhibitors (novobiocin, ART-558, and RP6685) were evaluated both individually and in combination with standard of care and investigational anticancer small molecules within a complex spheroid model of solid tumors. . Complex spheroids include a stromal component modeled by human endothelial cells (HUVEC) and fibroblasts modeled by human mesenchymal stem cells (MSCs). The concentration ranges selected for each drug and investigational agent were based upon clinically achievable concentrations if the clinical Cmax of the agent was known.
# Compounds. The drugs and investigational agents: novobiocin (NSC847541), ART-558 (NSC835418), RP-6685 (NSC848927), peposertib (NSC802822), ceralasertib (NSC780249), elimusertib (NSC800525), camonsertib (NSC841442), AZD-1390 (NSC803789), olaparib (NSC753686), talazoparib (NSC767125), rucaparib (NSC756644), sotorasib (NSC818433), MRTX-1133 (NSC836407), SN-38 (NSC673596), topotecan (NSC609699), epotoside (NSC141540), doxorubicin (NSC123127), gemcitabine (NSC613327), 5-fluorouracil (NSC19893), paclitaxel (NSC125973), vemurafenib (NSC761431), MSA-2 (NSC828583), SN-011 (NSC837082), adavosertib (NSC754352), prexasertib (NSC758257), carboplatin (NSC241240) and oxaliplatin (NSC266046), were obtained from the National Cancer Institute (NCI) Developmental Therapeutics Program Chemical Repository (21). The FDA-approved anticancer drug set is available from the Developmental Therapeutics Program at https://dtp.cancer.gov/organization/dscb/obtaining/. […] The stock solutions were prepared in dimethyl sulfoxide (DMSO, Sigma-Aldrich, St. Louis, MO, cat. D2650), except for the platinum compounds which were prepared in saline (Quality Biological, Gaithersburg, MD, cat. 114-055-101), at 800-fold the tested concentration and stored at -70 degrees C prior to their use. All drugs and investigational agents were tested over a range starting from a high concentration at or near the clinical Cmax and decreasing in half-log increments. If the clinical Cmax for an agent had not been determined, the highest concentration tested was 10 microM, except for SN-38, which was tested at a high concentration of 1 microM.
# Cell Culture. All cells were maintained in an incubator at 37 degrees C and 5% CO2 with 95% humidity. The PDC lines were cultured according to standard operating procedures established by the NCI PDMR (https://pdmr.cancer.gov). Table 3 of the manuscript, lists the cell lines along with the number of the three cell types plated to form the mct-spheroids and media for tumor cell growth. After thawing, all PDC lines, except 997537-175-T-J1-PDC and 415267-285-R-J2-PDC, were cultured in Matrigel-coated flasks prepared with a working solution of 1X Ham's F-12 nutrient mix, without supplementation (Thermo Fisher Scientific, cat. 11765054), 100 U/mL penicillin-streptomycin (Thermo Fisher Scientific, cat. 15140122), and 2.5% Matrigel (Corning Inc., Corning, NY, cat. 354248) for the first three passages. The two PDC lines 997537-175-T-J1-PDC and 415267-285-R-J2-PDC were cultured on uncoated flasks. The 857933-349-R-J2-PDC line was cultured in 6C/Colon 1B media containing advanced DMEM/F-12 (Thermo Fisher Scientific, cat. 12634028), 10 mM HEPES (Thermo Fisher Scientific, cat. 15630080), 1X GlutaMAX supplement (Thermo Fisher Scientific, cat. 35050061), 0.1 mg/mL primocin (InvivoGen, San Diego, CA, cat. ant-pm-2), 10% defined fetal bovine serum, heat inactivated (HyClone Laboratories Inc., Logan, UT, cat. SH30070.03HI), 50% L-WRN conditioned media (ATCC, cat. CRL-3276), 1.25 mM N-Acetyl-L-cysteine (Sigma-Aldrich, cat. A9165), 10 mM nicotinamide (Sigma-Aldrich, cat. N0636), 1X B-27 supplement (Thermo Fisher Scientific, cat. 17504044), 1X N-2 supplement (Thermo Fisher Scientific, cat. […]
# [1] = second compound 0.0316 µM, first compound 0.0316 µM
# [2] = second compound 0.0316 µM, first compound 0.1 µM
# [3] = second compound 0.0316 µM, first compound 0.316 µM
# [4] = second compound 0.0316 µM, first compound 1 µM
# [5] = second compound 0.1 µM, first compound 0.0316 µM
# [6] = second compound 0.1 µM, first compound 0.1 µM
# [7] = second compound 0.1 µM, first compound 0.316 µM
# [8] = second compound 0.1 µM, first compound 1 µM
# [9] = second compound 0.316 µM, first compound 0.0316 µM
# [10] = second compound 0.316 µM, first compound 0.1 µM
# [11] = second compound 0.316 µM, first compound 0.316 µM
# [12] = second compound 0.316 µM, first compound 1 µM
# [13] = second compound 1 µM, first compound 0.0316 µM
# [14] = second compound 1 µM, first compound 0.1 µM
# [15] = second compound 1 µM, first compound 0.316 µM
# [16] = second compound 1 µM, first compound 1 µM
# [17] = second compound 3.16 µM, first compound 0.0316 µM
# [18] = second compound 3.16 µM, first compound 0.1 µM
# [19] = second compound 3.16 µM, first compound 0.316 µM
# [20] = second compound 3.16 µM, first compound 1 µM
# [21] = second compound 10 µM, first compound 0.0316 µM
# [22] = second compound 10 µM, first compound 0.1 µM
# [23] = second compound 10 µM, first compound 0.316 µM
# [24] = second compound 10 µM, first compound 1 µM
# 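Note: spheroids exposed to compounds for 7 days.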
# 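Throughout, for viability, T/C: 100% = DMSO vehicle-treated spheroids.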
compound,measurement,setting,value
CCc1cc2c(N3CCc4c(cc(Cn5ccnc5)cc4-c4cn(C)nc4C(F)(F)F)C3=O)ccnc2c(OC)n1 + Cc1cccc(N(C)C(=O)C2C(O)CCN2c2nc(C)cc(C(F)(F)F)c2C#N)c1,IC50,second compound 0.0316 µM,3280 nM
same,IC50,second compound 0.1 µM,4180 nM
same,IC50,second compound 0.316 µM,4630 nM
same,IC50,second compound 1 µM,2770 nM
same,IC50,second compound 3.16 µM,2430 nM
same,IC50,second compound 10 µM,1570 nM
same,"viability, T/C",[1],84%
same,"viability, T/C",[2],73.8%
same,"viability, T/C",[3],67.4%
same,"viability, T/C",[4],64.2%
same,"viability, T/C","second compound 0.0316 µM, first compound 3.16 µM",49.7%
same,"viability, T/C","second compound 0.0316 µM, first compound 10 µM",38.4%
same,"viability, T/C",[5],87.5%
same,"viability, T/C",[6],96%
same,"viability, T/C",[7],72.7%
same,"viability, T/C",[8],77.2%
same,"viability, T/C","second compound 0.1 µM, first compound 3.16 µM",54.7%
same,"viability, T/C","second compound 0.1 µM, first compound 10 µM",31.2%
same,"viability, T/C",[9],95.5%
same,"viability, T/C",[10],87.9%
same,"viability, T/C",[11],76.9%
same,"viability, T/C",[12],73.8%
same,"viability, T/C","second compound 0.316 µM, first compound 3.16 µM",51.3%
same,"viability, T/C","second compound 0.316 µM, first compound 10 µM",41.1%
same,"viability, T/C",[13],90.6%
same,"viability, T/C",[14],82.2%
same,"viability, T/C",[15],76.8%
same,"viability, T/C",[16],65.4%
same,"viability, T/C","second compound 1 µM, first compound 3.16 µM",47.1%
same,"viability, T/C","second compound 1 µM, first compound 10 µM",29.3%
same,"viability, T/C",[17],84.9%
same,"viability, T/C",[18],94.9%
same,"viability, T/C",[19],86.8%
same,"viability, T/C",[20],61.1%
same,"viability, T/C","second compound 3.16 µM, first compound 3.16 µM",50.1%
same,"viability, T/C","second compound 3.16 µM, first compound 10 µM",32.8%
same,"viability, T/C",[21],92.9%
same,"viability, T/C",[22],71.8%
same,"viability, T/C",[23],69.1%
same,"viability, T/C",[24],56.8%
same,"viability, T/C","second compound 10 µM, first compound 3.16 µM",42.1%
same,"viability, T/C","second compound 10 µM, first compound 10 µM",30.5%
COc1cccc(OCCCN)c1-c1cc(Nc2cnc(C#N)cn2)n[nH]1 + Cc1cccc(N(C)C(=O)C2C(O)CCN2c2nc(C)cc(C(F)(F)F)c2C#N)c1,IC50,second compound 0.0316 µM,4.8 nM
same,IC50,second compound 0.1 µM,5.63 nM
same,IC50,second compound 0.316 µM,5.68 nM
same,IC50,second compound 1 µM,5.28 nM
same,IC50,second compound 3.16 µM,4.83 nM
same,IC50,second compound 10 µM,5.22 nM
same,"viability, T/C","second compound 0.0316 µM, first compound 0.00316 µM",70.3%
same,"viability, T/C","second compound 0.0316 µM, first compound 0.01 µM",14.5%
same,"viability, T/C",[1],5.94%
same,"viability, T/C",[2],4.36%
same,"viability, T/C",[3],4.2%
same,"viability, T/C",[4],2.81%
same,"viability, T/C","second compound 0.1 µM, first compound 0.00316 µM",86.8%
same,"viability, T/C","second compound 0.1 µM, first compound 0.01 µM",13.4%
same,"viability, T/C",[5],5.69%
same,"viability, T/C",[6],4.81%
same,"viability, T/C",[7],4.14%
same,"viability, T/C",[8],2.6%
same,"viability, T/C","second compound 0.316 µM, first compound 0.00316 µM",84.9%
same,"viability, T/C","second compound 0.316 µM, first compound 0.01 µM",16.4%
same,"viability, T/C",[9],4.73%
same,"viability, T/C",[10],4.19%
same,"viability, T/C",[11],4.39%
same,"viability, T/C",[12],3.1%
same,"viability, T/C","second compound 1 µM, first compound 0.00316 µM",78%
same,"viability, T/C","second compound 1 µM, first compound 0.01 µM",15.3%
same,"viability, T/C",[13],5.38%
same,"viability, T/C",[14],4.93%
same,"viability, T/C",[15],3.71%
same,"viability, T/C",[16],3.25%
same,"viability, T/C","second compound 3.16 µM, first compound 0.00316 µM",69.9%
same,"viability, T/C","second compound 3.16 µM, first compound 0.01 µM",16%
same,"viability, T/C",[17],5.86%
same,"viability, T/C",[18],5.17%
same,"viability, T/C",[19],4.05%
same,"viability, T/C",[20],2.85%
same,"viability, T/C","second compound 10 µM, first compound 0.00316 µM",76.6%
same,"viability, T/C","second compound 10 µM, first compound 0.01 µM",15.7%
same,"viability, T/C",[21],5.87%
same,"viability, T/C",[22],4.92%
same,"viability, T/C",[23],4.34%
same,"viability, T/C",[24],3.21%

# — PubChem BioAssay AID1963839 (Molecular Pharmacology Branch, DTP, NCI, 2024)
